Reference: patent US8816121B2, “GLP-1 receptor stabilizers and modulators” (Receptos, Inc., priority 2010, dated 2014)

Columns and labels:
GLP-1R [1] = target: T1, GLP-1R (Homo sapiens, UniProt P43220); test: GLP-1 PAM EC20 assay: dosing compound in the presence of fixed GLP-1 (9-36), direct cAMP response; type: cell-based; settings: compound dose response in presence of EC20 GLP-1 (9-36); for EC50: GLP-1R CRE-bla CHO-K1 cells; for EC20 GLP-1 (9-36) PAM max cAMP: total cAMP from standard curve
T1 construct: host or cells: CRE-bla CHO-K1
Procedure: GLP-1 PAM EC20 Assay: Dosing Compound in the Presence of Fixed GLP-1 (9-36)-Direct cAMP Response
GLP-1R CRE-bla CHO-K1 cells were seeded into 384-well white flat bottom plates at 10,000 cells/well/20 μL culture media (same culture media used for PAM shift assay) and incubated for 18 h at 37° C. in 5% CO2. Compound dose response curves (12-point) and a separate 30×EC20 GLP-1 (9-36) stock solution were generated in assay buffer (same assay buffer used for PAM shift assay) in presence of 1.5 mM IBMX and 12.5% DMSO. Cells were washed 1× with assay buffer prior to adding 3 μL of compound dose response curve and 0.5 μL EC20 GLP-1 (9-36) to 12 μL assay buffer and incubated for 30 min at 37° C. Direct detection of cAMP was carried out using DiscoveRx HitHunter cAMP kit according to manufacturer's instructions (substituting 5 μL Antibody portion with 2 μL) and luminescence was read using a SpectraMax M5 plate reader. Luminescence signal was converted to total cAMP using a cAMP standard curve and data was analyzed by non-linear regression to determine the EC50 values for cAMP dose response curves.

GLP-1R [2] = test: Size exclusion chromatography peak shift assay (stability induction on GLP-1R); type: binding; settings: relative to apo protein and a positive control; effect on dimer stability
Text: Generation of GLP-1R Protein Used in the Stability Induction Assay
A synthetic gene for a modified GLP-1R enhanced for expression in insect cells was created using overlap extension PCR to encode the amino acid sequence containing a signal peptide, N-terminal Flag (Sigma) epitope tag, mGLP-1R, GFP and a 10× histidine tag.
This gene product was cloned into the insect cell transfer vector, pFastBac 1 (Invitrogen) for transposition into the baculovirus DNA hosted in the DH10Bac strain E. coli. […] High titer viral stock of the recombinant GLP-1R baculovirus was recovered and used to infect a healthy population of SF9 insect cells for expression under the control of the ^ie1GP64 baculovirus promoter (EMD biosciences).
Recombinant protein was isolated from the membranes of the insect cells by extraction using 1% β-dodecylmaltopyranoside followed by purification using immobilized metal affinity chromatography resin and standard protocols After elution the protein was analyzed by analytical size exclusion chromatography to determine its retention time relative to an unliganded receptor.
Size Exclusion Chromatography Peak Shift Assay—Characterization of Stability Induction for Compounds
The protein's hydrodynamic radius was analyzed on an analytical size exclusion chromatography column (Sepax Zenix SEC-300 250 mm×4.6 mm column) equilibrated with 20 mM Hepes pH 7.5, 500 mM NaCl, 2% v/v glycerol, 0.05% w/v DDM and 0.01% w/v CHS and attached to a Dionex Ultimate HPLC which continuously pumped running buffer at a flow rate of 0.5 mL/min. The HPLC was equipped with an ultraviolet absorption and a fluorescence detector which enabled detection of total protein absorbance and GFP fluorescent emission respectively. The peak profiles of the GLP-1R in the presence of multiple compounds could be determined from impure mixtures using fluorescence detection.
Each tested compound was assayed for its ability to alter the hydrodynamic radius. This change can manifest as either a positive or negative shift in retention time in the peak shift assay. A positive shift represents a decrease in apparent molecular weight of the complex, while a negative shift represents an increase in size. Compounds that result in a negative shift in retention time (i.e. increased size) may do so by destabilizing the receptor or by causing non-specific aggregation. Compounds that result in a positive shift in retention time (i.e. decreased size) may do so either by stabilizing the receptor in a more compact conformation or by disrupting the oligomeric state (e.g. Dimer→monomer transition).
For this assay we reported the relative shift in retention time of each compound with respect to the apo protein (without ligand) and a positive control.

T1 sequence (P43220 24-463): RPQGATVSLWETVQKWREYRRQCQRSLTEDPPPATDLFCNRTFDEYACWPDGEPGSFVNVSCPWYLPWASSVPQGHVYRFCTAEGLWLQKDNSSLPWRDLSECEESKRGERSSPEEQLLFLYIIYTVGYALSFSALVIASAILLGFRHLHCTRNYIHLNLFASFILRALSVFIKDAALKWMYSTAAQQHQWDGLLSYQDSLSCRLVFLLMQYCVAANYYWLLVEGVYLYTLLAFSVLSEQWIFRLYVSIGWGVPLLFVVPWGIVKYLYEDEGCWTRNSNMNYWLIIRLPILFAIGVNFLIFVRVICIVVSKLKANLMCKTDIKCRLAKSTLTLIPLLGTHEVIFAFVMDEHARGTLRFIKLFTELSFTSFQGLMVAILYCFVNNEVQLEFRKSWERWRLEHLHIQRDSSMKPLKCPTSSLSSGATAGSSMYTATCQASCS
T1 sequence (P01275 100-127 partner limits assumed): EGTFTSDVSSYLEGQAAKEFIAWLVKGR

| EC50 (GLP-1R [1]) | EC20 GLP-1 (9-36) PAM max cAMP (GLP-1R [1]) | SMILES | PEAK SHIFT ASSAY (relative shift in retention time, normalized 0 to 5 positive, −5 to 0 negative) (GLP-1R [2]) |
| --- | --- | --- | --- |
| > 10 µM | 0.072 µM | CCCCCCCOc1ccc(C(=O)Oc2ccc(C[C@H](NC(=O)c3ccc(OC)cc3)C(=O)O)cc2)cc1 [Compound 63] | – |
| 4.84 µM | 0.16 µM | CCCCCCCOc1ccc(C(=O)Oc2ccc(C[C@H](NC(=O)c3ccc(NC(=O)COCc4ccccc4)cc3)C(=O)O)cc2)cc1 [Compound 179, (S)-2-(4-(2-(benzyloxy)acetamido)benzamido)-3-(4-((4-(heptyloxy)benzoyl)oxy)phenyl)propanoic acid] | – |
| 6.31 µM | 0.098 µM | CCCCCCCOc1ccc(C(=O)Oc2ccc(C[C@H](NC(=O)c3ccc(NC(=O)Cc4ccc(OC)cc4)cc3)C(=O)O)cc2)cc1 [Compound 178, (S)-3-(4-((4-(heptyloxy)benzoyl)oxy)phenyl)-2-(4-(2-(4-methoxyphenyl)acetamido)benzamido)propanoic acid] | – |
| 5.49 µM | 0.204 µM | CCCCCCCOc1ccc(C(=O)Oc2ccc(CC(NC(=O)c3ccc(NC(=O)COCc4ccccc4)cc3)C(=O)O)cc2OC)cc1 (stereo not shown) [Compound 103, 2-(4-(2-(benzyloxy)acetamido)benzamido)-3-(4-((4-(heptyloxy)benzoyl)oxy)-3-methoxyphenyl)propanoic acid] | – |
| 4.05 µM | 0.174 µM | CCCCCCCOc1ccc(C(=O)Oc2ccc(CC(NC(=O)c3ccc(NC(=O)Cc4ccc(OC)cc4)cc3)C(=O)O)cc2OC)cc1 (stereo not shown) [Compound 120, 3-(4-((4-(heptyloxy)benzoyl)oxy)-3-methoxyphenyl)-2-(4-(2-(4-methoxyphenyl)acetamido)benzamido)propanoic acid] | – |
| 2.78 µM | 0.216 µM | CCCCCCCOc1ccc(C(=O)Oc2ccc([C@H](NC(=O)c3ccc(NC(=O)Cc4ccc(OC)cc4)cc3)C(=O)O)cc2)cc1 [Compound 263, (S)-2-(4-((4-(heptyloxy)benzoyl)oxy)phenyl)-2-(4-(2-(4-methoxyphenyl)acetamido)benzamido)acetic acid] | – |
| > 10 µM | 0.027 µM | CCCCCCCOc1ccc(C(=O)Oc2ccc(CC(NC(=O)c3ccc(NC(=O)C4CCCC4)cc3)C(=O)O)cc2OC)cc1 (stereo not shown) [Compound 273, 2-(4-(cyclopentanecarboxamido)benzamido)-3-(4-((4-(heptyloxy)benzoyl)oxy)-3-methoxyphenyl)propanoic acid] | 0.69 |

Continued, compound first:

| SMILES | EC50 (GLP-1R [1]) | EC20 GLP-1 (9-36) PAM max cAMP (GLP-1R [1]) | PEAK SHIFT ASSAY (relative shift in retention time, normalized 0 to 5 positive, −5 to 0 negative) (GLP-1R [2]) |
| --- | --- | --- | --- |
| CCCCCCCOc1ccc(C(=O)Oc2ccc(CC(NC(=O)c3ccc(OC)cc3)C(=O)O)cc2OC)cc1 (stereo not shown) [Compound 2, 3-(4-((4-(heptyloxy)benzoyl)oxy)-3-methoxyphenyl)-2-(4-methoxybenzamido)propanoic acid] | > 20 µM | 0.189 µM | – |
| COc1cc(CC(NC(=O)c2ccc(NC(=O)C3CCCC3)cc2)C(=O)O)ccc1OC(=O)c1ccc(NC(C)=O)cc1 (stereo not shown) [Compound 274, 3-(4-((4-acetamidobenzoyl)oxy)-3-methoxyphenyl)-2-(4-(cyclopentanecarboxamido)benzamido)propanoic acid] | – | – | 0.83 |
| COc1cc(CC(NC(=O)c2ccc(NC(=O)C3CCCC3)cc2)C(=O)O)ccc1OC(=O)c1ccc(NC(=O)C2CCCC2)cc1 (stereo not shown) [Compound 272] | – | – | −1.15 |
| CCCCCCCOc1ccc(C(=O)Oc2ccc(C[C@H](NC(=O)c3ccc(C(C)(C)C)cc3)C(=O)O)cc2)cc1 [Compound 57, (S)-2-(4-(tert-butyl)benzamido)-3-(4-((4-(heptyloxy)benzoyl)oxy)phenyl)propanoic acid] | 3.67 µM | 0.237 µM | – |
| COc1ccc(C(=O)Oc2ccc(CC(NC(=O)c3ccc(NC(=O)C4CCCC4)cc3)C(=O)O)cc2OC)cc1 (stereo not shown) [Compound 268] | – | – | 0.46 |
| COc1cc(CC(NC(=O)c2ccc(NC(=O)C3CCCC3)cc2)C(=O)O)ccc1OC(=O)c1ccc(-c2ccccc2)cc1 (stereo not shown) [Compound 275] | – | – | 0 |
| COc1cc(CC(NC(=O)c2ccc(NC(=O)C3CCCC3)cc2)C(=O)O)ccc1OC(=O)c1ccc(C#N)cc1 (stereo not shown) [Compound 269] | – | – | 0.34 |
| CCCN(CCC)S(=O)(=O)c1ccc(C(=O)Oc2ccc(CC(NC(=O)c3ccc(NC(=O)C4CCCC4)cc3)C(=O)O)cc2OC)cc1 (stereo not shown) [Compound 271] | – | – | 0.52 |
| COc1cc(CC(NC(=O)c2ccc(NC(=O)C3CCCC3)cc2)C(=O)O)ccc1OC(=O)c1ccccc1 (stereo not shown) [Compound 266] | – | – | 0.88 |
| COc1cc(CC(NC(=O)c2ccc(NC(=O)C3CCCC3)cc2)C(=O)O)ccc1OC(=O)c1ccccc1COC(=O)c1ccccc1 (stereo not shown) [Compound 270] | – | – | 0 |
| COc1cc(CC(NC(=O)c2ccc(NC(=O)C3CCCC3)cc2)C(=O)O)ccc1OC(=O)c1ccccc1OC(C)=O (stereo not shown) [Compound 267] | – | – | 0.25 |
